# Experimental data published in US20020054880A1, “Anti-inflammatory, tolerogenic and immunoinhibiting properties of carbohydrate binding-peptides” (priority 1992, published 2002).
# Legend:
# [1] = test system: pertussis toxin binding to Chinese Hamster ovary (CHO) cell; assay: CHO cell neutralization of pertussis toxin (cell clumping); format: cell-based; conditions: PT 2.4 ng/ml, peptide and PT 1 hour, triplicate
# Experimental: Confluent monolayers of CHO cells were lifted from plastic tissue culture flasks with 0.25% trypsin and suspended at a concentration of 5×10^4 cells/ml in Ham's F12 media containing 10% fetal bovine serum (FBS). 100 μl of the cell suspension was added to 96 well tissue culture plates and were allowed to establish contact with the plastic for 24 to 48 hours. The expended media was then removed and filtered-sterilized peptide 5-fold dilutions ranging in concentration from 300 to 30 femptogram per ml (80 μl) in Ham' F12 media containing FBS were added to the CHO cells. […] The incubation mixtures were gently mixed and incubated at 37° C. for 1 hour in a CO2 incubator. The incubation mixtures were then removed and replaced with fresh media. The tissue culture plates were then incubated for 24 hours at 37° C., fixed with 100% methanol, and stained with Geimsa stain. Control experiments were done in the absence of peptide alone or in the absence of PT. All determinations were done in triplicate. […] The results reported in Table VIII show the maximum peptide concentration required to cause a 50% reduction in CHO cell clumping.
# Balb/c mice [2] = assay: Persistence of suppression of DTH response on OVA re-challenge at 2 weeks; format: in vivo; conditions: mice treated as in Example 11, re-challenged at 2 weeks; FIG. 3
# Description: Identical groups of mice treated with the peptides in Example 11 above, were re-challenged with OVA antigen 2 weeks after primary immunization.
# [3] = biological target: T1, MAL-biotin binding to fetuin (Bos taurus, UniProt P12763); assay: MAL-biotin binding to fetuin, binding inhibition assay; parameters: species or system Maackia amurensis; conditions: peptide mg/mL: S2PL 1.2, ACS2P1 1.0, S2(14-2.3) 1.0, S2P2 1.1, S2P3 0.51, S2P4 0.98, S2P6 0.85, S3P1 3.2, S3P2 3.1, S3P3 4.5, S3P4 3.3, S3P5 0.48, S3P9a 1.7, SPYGRC 4.4, S2(WGA) 1.0, WGA (62-73) 1.0; + enhancement, − inhibition
# T1 construct: purchased Sigma Chemical Company (fetuin); Boehringer Mannheim (MAL-biotin)
# T1 sequence (P12763 19-359): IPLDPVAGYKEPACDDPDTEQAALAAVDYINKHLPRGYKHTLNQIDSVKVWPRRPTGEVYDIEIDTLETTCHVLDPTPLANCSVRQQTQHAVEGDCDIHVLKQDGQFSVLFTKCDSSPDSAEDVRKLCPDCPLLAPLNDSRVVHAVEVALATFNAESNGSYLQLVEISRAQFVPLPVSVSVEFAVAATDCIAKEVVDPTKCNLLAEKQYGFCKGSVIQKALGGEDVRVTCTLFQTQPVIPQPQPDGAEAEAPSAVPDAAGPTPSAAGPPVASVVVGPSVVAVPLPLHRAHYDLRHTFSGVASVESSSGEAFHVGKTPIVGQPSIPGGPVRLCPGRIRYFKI
# Experimental: (§1) Peptides ranging in concentration from 0.5 to 4.5 mg/ml in PBS (40 μl) were added to each well and PT-biotin (10 μl containing 10 ng in PBS) was then added to the microtiter wells. […] Horseradish peroxidase-conjugated avidin (100 μl, 1/3000 dilution in PBST to a concentration of 0.3 μg/ml) was then added to the wells, and the plates were incubated at ambient temperature for 1 hour. […] Color development was recorded at 405 nm using a Titertek Multiskan MC plate reader. […] Binding assays for each peptide were done in duplicate. Binding inhibition experiments utilizing SNA-, WGA-, and MAL-biotin were performed as described above using 10 ng of each biotinylated lectin in PBS.
# (§2) Binding assays for each inhibitor concentration were done at least in duplicate, and the average value varied less than 15%.
# [4] = biological target: T2, SNA-biotin binding to fetuin (Bos taurus, UniProt P12763); assay: biochemical
# T2 sequence (P12763 19-359): T1 sequence (P12763 19-359)
# Experimental: The solution was removed by aspiration and replaced with 100 μl of 1% BSA in PBS containing 0.05% Tween 20 (PBST). After incubation for 2-4 hours at room temperature, the microtiter wells were washed four times with 300 μl of PBST. Peptides ranging in concentration from 0.5 to 4.5 mg/ml in PBS (40 μl) were added to each well and PT-biotin (10 μl containing 10 ng in PBS) was then added to the microtiter wells. After incubating for 1 hour, the binding reaction was stopped by aspirating the solutions and the plate was washed with PBST (300 μl). Horseradish peroxidase-conjugated avidin (100 μl, 1/3000 dilution in PBST to a concentration of 0.3 μg/ml) was then added to the wells, and the plates were incubated at ambient temperature for 1 hour. After washing the wells as described above, the substrate solution [1 mM ABTS in 5 mM citrate buffer, pH 4.2, containing 0.1% hydrogen peroxide, v/v) was added and the plates were incubated for 30 minutes. Color development was recorded at 405 nm using a Titertek Multiskan MC plate reader. Maximum binding was determined in the absence of peptide, and background binding was measured in wells coated with BSA only. Binding assays for each peptide were done in duplicate. Binding inhibition experiments utilizing SNA-, WGA-, and MAL-biotin were performed as described above using 10 ng of each biotinylated lectin in PBS.
# [5] = biological target: T3, PT-biotin binding to fetuin (Bos taurus, UniProt P12763); assay: PT-biotin binding to fetuin, binding inhibition assay; parameters: species or system Bordetella pertussis; conditions: peptide mg/mL: S2PL 1.2, ACS2P1 1.0, S2(14-2.3) 1.0, S2P2 1.1, S2P3 0.51, S2P4 0.98, S2P6 0.85, S3P1 3.2, S3P2 3.1, S3P3 4.5, S3P4 3.3, S3P5 0.48, S3P9a 1.7, SPYGRC 4.4, S2(WGA) 1.0, WGA (62-73) 1.0; + enhancement, − inhibition
# T3 construct: purchased Sigma Chemical Company (fetuin); Connaught Center for Biotechnology Research (PT)
# T3 sequence (P12763 19-359): T1 sequence (P12763 19-359)
# Experimental: as §1, §2
# Balb/c mice [6] = assay: DTH inflammatory response, mouse footpad swelling assay; format: in vivo; conditions: 100 μg peptide into the tail vein 5 hours after challenge with 20 μg OVA; FIG. 2
# Experimental: DTH inflammatory responses were measured using the mouse footpad swelling assay as described by Smith and Ziola^64. Briefly, groups of Balb/c mice (about 19-20 grams each) were immunized with 100 μg of the OVA antigen containing 20μg of the adjuvant (DDA—dimethyl-dioctadecylammonium bromide) which also induces a strong inflammatory DTH response. Seven days later, each group of mice was footpad-challenged with 20 μg of the OVA antigen (without adjuvant). The resulting inflammatory footpad swelling was measured with a Mitutoyo Engineering micrometer 24 hours after challenge.
# To assess the effect of different peptides on the inflammatory DTH response, groups of mice received 100 μg of the following peptides- ACS2P1 (2275), SPYGRC (2283), and S3P9a. These peptides were injected as a solution into the tail vein, 5 hours after challenge. Control groups were left untreated or received 100 μL of phosphate-buffered saline (PBS).
structure (smiles),measurement,setting,value
CC(C)C[C@H](NC(=O)[C@H](CC(C)C)NC(=O)[C@@H](N)CCCNC(=N)N)C(=O)N[C@@H](C)C(=O)N[C@@H](CO)C(=O)N[C@H](C(=O)N[C@@H](CC(N)=O)C(=O)N[C@@H](CO)C(=O)N[C@@H](CCCNC(=N)N)C(=O)N[C@@H](CC(C)C)C(=O)N[C@@H](CS)C(=O)N[C@@H](C)C(=O)N[C@H](C(=O)N[C@@H](Cc1ccccc1)C(=O)N[C@H](C(=O)N[C@@H](CCCNC(=N)N)C(=O)N[C@@H](CC(=O)O)C(=O)NCC(=O)O)C(C)C)C(C)C)[C@@H](C)O [Peptide S3P9a],Maximal Inhibitory Concentration for Greater than 50% Inhibition,[1],NI (Not inhibitory at a peptide concentration of 300 ng/ml.)
same,"DTH response (footpad swelling) on later re-challenge with OVA antigen, in words",Balb/c mice [2],reduced immune response
same,Percent Changes in Binding Activity MAL/fetuin,[3],+18 ± 6%
same,IC50,[4],2740 ± 860 µM
same,Percent Changes in Binding Activity SNA/fetuin,"[4]; peptide mg/mL: S2PL 1.2, ACS2P1 1.0, S2(14-2.3) 1.0, S2P2 1.1, S2P3 0.51, S2P4 0.98, S2P6 0.85, S3P1 3.2, S3P2 3.1, S3P3 4.5, S3P4 3.3, S3P5 0.48, S3P9a 1.7, SPYGRC 4.4, S2(WGA) 1.0, WGA (62-73) 1.0, + enhancement, − inhibition",−41 ± 3%
same,Percent Changes in Binding Activity PT/fetuin,[5],+328 ± 10%
same,"effect on DTH inflammatory response (footpad swelling 24 hours after challenge), in words",Balb/c mice [6],effective in reducing a DTH response in mice
